Six compounds from US8658791B2, “2-substituted-6-amino-5-alkyl, alkenyl or alkynyl-4-pyrimidinecarboxylic acids and 6-substituted-4-amino-3-alkyl, alkenyl or alkynyl picolinic acids and their use as herbicides” (Dow AgroSciences, LLC, priority 2007, dated 2014) can be followed below.

Each structure is given as a SMILES string.

What all share (type): in vivo
For test [1], the system named is velvetleaf (Abutilon theophrasti). The experiment in a line: General postemergence herbicidal activity, ABUTH. As to conditions: Abutilon theophrasti, post-emergence, 336 h, postemergence spray, visual score after 14 days, 0 = no injury, 100 = complete kill, read-out: Post-emergent Weed Control ABUTH; for pest or weed control at 280 g/ha: 280 g ai/ha; for pest or weed control at 70 g/ha: 70 g ai/ha. Put shortly:
(§1)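 Greenhouse plants at first or second true leaf stage sprayed postemergence at 187 L/ha with compound in acetone/DMSO/water mixture with crop oil concentrate and surfactant. Rates ran from a high rate through 1/2X to 1/16X. Visual injury versus untreated plants scored 0–100% after 14 days.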

For test [2] the test system is unchanged. The experiment in a line: General preemergence herbicidal activity, ABUTH. As to conditions: applied to soil surface, visual score after 20-22 days, 0 = no injury, 100 = complete kill or no emergence, read-out: Pre-emergent Weed Control ABUTH; for pest or weed control at 140 g/ha: 140 g ai/ha. The source says: (§2) Seeds of the desired test plant species were planted in a soil matrix prepared by mixing a loam soil (43 percent silt, 19 percent clay, and 38 percent sand, with a pH of about 8.1 and an organic matter content of about 1.5 percent) and sand in a 70 to 30 ratio. The soil matrix was contained in plastic pots with a surface area of 127 square centimeters. When required to ensure good germination and healthy plants, a fungicide treatment and/or other chemical or physical treatment was applied. A weighed amount, determined by the highest rate to be tested, of each test compound was placed in a 25 mL glass vial and was dissolved in 6 mL of a 97:3 v/v (volume/volume) mixture of acetone and DMSO to obtain concentrated stock solutions. […] The stock solutions obtained were diluted with 18 mL of a 0.1% v/v aqueous solution of Tween® 20 surfactant to obtain spray solutions containing the highest application rate. Additional application rates were obtained by serial dilution of 12 mL of the high rate solution into a solution containing 3 mL of 97:3 v/v mixture of acetone and DMSO and 9 mL of the 0.1% v/v aqueous solution of Tween® 20 surfactant to obtain 1/2X, 1/4X, 1/8X and 1/16X rates of the high rate. Compound requirements are based upon a 12 mL application volume at a rate of 187 L/ha. Formulated compounds were applied to the soil surface with an overhead Mandel track sprayer equipped with a […] nozzles calibrated to deliver 187 L/ha over an application area of 0.503 square meters at a spray height of 18 inches (43 cm) above the soil surface. Control pots were sprayed in the same manner with the solvent blank. The treated pots and control pots were placed in a greenhouse maintained with an approximate 15 hour photoperiod and temperatures of about 23-29° C. during the day and 22-28° C. during the night. Nutrients and water were added on a regular basis and supplemental lighting was provided with overhead metal halide 1000-Watt lamps as necessary. The water was added by top-irrigation. After 20-22 days, the condition of the test plants that germinated and grew as compared with that of the untreated plants that emerged and grew was determined visually and scored on a scale of 0 to 100 percent where 0 corresponds to no injury and 100 corresponds to complete kill or no emergence.

Test [3] deals with barnyardgrass (Echinochloa crus-galli). The experiment in a line: General preemergence herbicidal activity, ECHCG. The conditions noted are these: applied to soil surface, visual score after 20-22 days, 0 = no injury, 100 = complete kill or no emergence, read-out: Pre-emergent Weed Control ECHCG; for pest or weed control at 140 g/ha: 140 g ai/ha.
Source text: as §2

In test [4] the test system is rice (Oryza sativa). The experiment in a line: General postemergence herbicidal activity, ORYSA. As to conditions: Oryza sativa, post-emergence, 336 h, postemergence spray, visual score after 14 days, 0 = no injury, 100 = complete kill, read-out: Post-emergent Weed Control ORYSA; for plant injury at 280 g/ha: 280 g ai/ha; for plant injury at 70 g/ha: 70 g ai/ha. The gist of the method:
as §1

In test [5] the test system is wild poinsettia (Euphorbia heterophylla). The experiment in a line: General postemergence herbicidal activity, EPHHL. As to conditions: Euphorbia heterophylla, post-emergence, 336 h, postemergence spray, visual score after 14 days, 0 = no injury, 100 = complete kill, read-out: Post-emergent Weed Control EPHHL; for pest or weed control at 280 g/ha: 280 g ai/ha; for pest or weed control at 70 g/ha: 70 g ai/ha. The gist of the method:
as §1

In test [6] the test system is lambsquarter (Chenopodium album). The experiment in a line: General postemergence herbicidal activity, CHEAL. As to conditions: Chenopodium album, post-emergence, 336 h, postemergence spray, visual score after 14 days, 0 = no injury, 100 = complete kill, read-out: Post-emergent Weed Control CHEAL; for pest or weed control at 280 g/ha: 280 g ai/ha; for pest or weed control at 70 g/ha: 70 g ai/ha. The gist of the method:
as §1

Test [7] has as its system barnyardgrass (Echinochloa crus-galli). The experiment in a line: General postemergence herbicidal activity, ECHCG. The conditions noted are these: Echinochloa crus-galli, post-emergence, 336 h, postemergence spray, visual score after 14 days, 0 = no injury, 100 = complete kill, read-out: Post-emergent Weed Control ECHCG; for pest or weed control at 280 g/ha: 280 g ai/ha; for pest or weed control at 70 g/ha: 70 g ai/ha. The gist of the method:
as §1

Test [8] has as its system lambsquarter (Chenopodium album). The experiment in a line: General preemergence herbicidal activity, CHEAL. As to conditions: applied to soil surface, visual score after 20-22 days, 0 = no injury, 100 = complete kill or no emergence, read-out: Pre-emergent Weed Control CHEAL; for pest or weed control at 140 g/ha: 140 g ai/ha.
Source text: as §2

Test [9] has as its system rice (Oryza sativa). The experiment in a line: General preemergence herbicidal activity, ORYSA. As to conditions: applied to soil surface, visual score after 20-22 days, 0 = no injury, 100 = complete kill or no emergence, read-out: Pre-emergent Weed Control ORYSA; for plant injury at 140 g/ha: 140 g ai/ha.
Source text: as §2

Test [10] has as its system wild poinsettia (Euphorbia heterophylla). The experiment in a line: General preemergence herbicidal activity, EPHHL. As to conditions: applied to soil surface, visual score after 20-22 days, 0 = no injury, 100 = complete kill or no emergence, read-out: Pre-emergent Weed Control EPHHL; for pest or weed control at 140 g/ha: 140 g ai/ha.
Source text: as §2

Turning to `CCOC(=O)c1nc(C2CC2)nc(N)c1C` [Compound 1, 6-Amino-2-cyclopropyl-5-methylpyrimidine-4-carboxylic acid ethyl ester], the pest or weed control at 280 g/ha in test [1] stood at 15%; in test [5], 100%; in test [6], 80%; in test [7], 0%. Moreover, the pest or weed control at 140 g/ha in test [2] came out at 80%; in test [3], 80%; in test [8], 100%; in test [10] it was 100%. Also, the plant injury at 280 g/ha in the test with rice (Oryza sativa) [4] turned out to be 0%. For the same compound, in the test with rice (Oryza sativa) [9], the plant injury at 140 g/ha stood at 30%.

With `C=Cc1c(N)nc(-c2ccc(Cl)c(OC)c2F)nc1C(=O)OC` [Compound 3, 6-Amino-2-(4-chloro-2-fluoro-3-methoxyphenyl)-5-vinylpyrimidine-4-carboxylic acid methyl ester], the pest or weed control at 70 g/ha in [1] was found to be 100%; in [5] it was 100%; in test [6], 100%; in test [7] it was 95%. The pest or weed control at 140 g/ha in test [2] was found to be 80%; in test [3], 80%; in test [8] it was 100%; in [10] it was 100%. In the test with rice (Oryza sativa) [4], the plant injury at 70 g/ha came out at 15%. Besides, in the test with rice (Oryza sativa) [9], the plant injury at 140 g/ha came out at 30%.

As to `C=Cc1c(N)nc(-c2ccc(Cl)c(F)c2F)nc1C(=O)OC` [Compound 11, 6-Amino-2-(4-chloro-2,3-difluorophenyl)-5-vinyl-pyrimidine-4-carboxylic acid methyl ester], the pest or weed control at 70 g/ha was determined as 100% in test [1]; 100% in test [2] (70 g ai/ha); 100% in [3] (70 g ai/ha); 100% in test [5]; 100% in test [6]; 90% in test [7]. In addition, the pest or weed control at 70 g/ha in test [8] (70 g ai/ha) and in test [10] (70 g ai/ha) was 100% in each case. The plant injury at 70 g/ha in the test with rice (Oryza sativa) [4] was found to be 0%; with rice (Oryza sativa) [9] (70 g ai/ha), 95%.

Turning to `CCc1c(N)nc(-c2ccc(Cl)c(OC)c2F)nc1C(=O)OC` [Compound 21, 6-Amino-2-(4-chloro-2-fluoro-3-methoxyphenyl)-5-ethyl-pyrimidine-4-carboxylic acid methyl ester], the pest or weed control at 140 g/ha is 85% in test [1] (140 g ai/ha); 60% in [2]; 0% in test [3]; 100% in test [5] (140 g ai/ha); 100% in [6] (140 g ai/ha); 70% in [7] (140 g ai/ha). The results for the pest or weed control at 140 g/ha in test [8] and in [10] were 40% and 80%, respectively. The plant injury at 140 g/ha in the test with rice (Oryza sativa) [4] (140 g ai/ha) and in the test on rice (Oryza sativa) [9] was 0% each time.

In the case of `C=Cc1c(N)nc(-c2ccc(Cl)cc2)nc1C(=O)O` [Compound 43, 6-Amino-2-(4-chlorophenyl)-5-vinylpyrimidine-4-carboxylic acid], the pest or weed control at 280 g/ha came out at 90% in [1], 100% in test [5], 100% in test [6] and 90% in test [7]. The pest or weed control at 140 g/ha in test [2] was 100%; in test [3] it was 90%; in test [8] it was 100%; in test [10] it was 100%. Besides, in the test on rice (Oryza sativa) [4], the plant injury at 280 g/ha is 35%. Besides, the plant injury at 140 g/ha in the test with rice (Oryza sativa) [9] came to 90%.

As to `C=Cc1c(N)nc(-c2ccc(Cl)c(OC)c2)nc1C(=O)O` [Compound 45, 6-Amino-2-(4-chloro-3-methoxyphenyl)-5-vinylpyrimidine-4-carboxylic acid], the pest or weed control at 280 g/ha amounted to 0% in test [1], 60% in test [5], 95% in test [6] and 60% in test [7]. Besides, the pest or weed control at 140 g/ha in test [2] is 0%; in test [3], 10%; in test [8] it was 60%; in test [10] it was 0%. Also, the plant injury at 280 g/ha in the test on rice (Oryza sativa) [4] stood at 0%. The plant injury at 140 g/ha in the test on rice (Oryza sativa) [9] amounted to 30%.
